Assays:
Assay in all cases: relative viability (nuclei count vs DMSO), 5 days (fraction); higher = more cells survive
LCLC-103H = test system: LCLC-103H
Outline: (§1)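 Relative viability equals treated-well nuclei counts divided by vehicle-well nuclei counts. Counts came from 4× images of lung cancer cell lines grown in 1536-well plates for 5 days after pin-tool dosing on the day after seeding. Dosing used one drug alone or a fixed anchor-drug dose plus five library-drug doses (not always all listed) in √10 steps, and values are medians of duplicate plates.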

NCI-H520 = test system: NCI-H520
Outline: as §1

PC-3 [JPC-3] = test system: PC-3 [JPC-3]
Outline: as §1

NCI-H1793 = test system: NCI-H1793
Outline: as §1

NCI-H838 = test system: NCI-H838
Outline: as §1

LOU-NH91 = test system: LOU-NH91
Outline: as §1

NCI-H1651 = test system: NCI-H1651
Outline: as §1

201T = test system: 201T
Outline: as §1

NCI-H23 = test system: NCI-H23
Outline: as §1

NCI-H647 = test system: NCI-H647
Outline: as §1

LXF-289 = test system: LXF-289
Outline: as §1

NCI-H2405 = test system: NCI-H2405
Outline: as §1

RERF-LC-KJ = test system: RERF-LC-KJ
Outline: as §1

NCI-H2347 = test system: NCI-H2347
Outline: as §1

HARA = test system: HARA
Outline: as §1

A-427 = test system: A-427
Outline: as §1

UMC-11 = test system: UMC-11
Outline: as §1

LK-2 = test system: LK-2
Outline: as §1

HCC-78 = test system: HCC-78
Outline: as §1

LCLC-97TM1 = test system: LCLC-97TM1
Outline: as §1

NCI-H1650 = test system: NCI-H1650
Outline: as §1

NCI-H522 = test system: NCI-H522
Outline: as §1

COR-L23 = test system: COR-L23
Outline: as §1

Cc1cn(-c2cc(NC(=O)c3ccc(C)c(Nc4nccc(-c5cccnc5)n4)c3)cc(C(F)(F)F)c2)cn1 [Nilotinib] + Nc1ncn([C@H]2C[C@H](O)[C@@H](CO)O2)c(=O)n1 [Decitabine] (partner 2 µM)
relative viability (LCLC-103H; first compound 0.001 µM): 0.77 | relative viability (LCLC-103H; first compound 0.003162 µM): 0.883 | relative viability (LCLC-103H; first compound 0.01 µM): 0.815 | relative viability (LCLC-103H; first compound 0.03162 µM): 0.744 | relative viability (LCLC-103H; first compound 0.1 µM): 0.721 | relative viability (NCI-H520; first compound 0.001 µM): 0.473 | relative viability (NCI-H520; first compound 0.003162 µM): 0.653 | relative viability (NCI-H520; first compound 0.01 µM): 0.613 | relative viability (NCI-H520; first compound 0.03162 µM): 0.564 | relative viability (NCI-H520; first compound 0.1 µM): 0.649 | relative viability (PC-3 [JPC-3]; first compound 0.001 µM): 0.873 | relative viability (PC-3 [JPC-3]; first compound 0.01 µM): 1 | relative viability (PC-3 [JPC-3]; first compound 0.03162 µM): 0.897 | relative viability (PC-3 [JPC-3]; first compound 0.1 µM): 1.01 | relative viability (NCI-H1793; first compound 0.001 µM): 0.49 | relative viability (NCI-H1793; first compound 0.003162 µM): 0.263 | relative viability (NCI-H1793; first compound 0.01 µM): 0.87 | relative viability (NCI-H1793; first compound 0.03162 µM): 0.708 | relative viability (NCI-H1793; first compound 0.1 µM): 0.516 | relative viability (NCI-H838; first compound 0.001 µM): 0.44 | relative viability (NCI-H838; first compound 0.003162 µM): 0.532 | relative viability (NCI-H838; first compound 0.01 µM): 0.522 | relative viability (NCI-H838; first compound 0.03162 µM): 0.489 | relative viability (NCI-H838; first compound 0.1 µM): 0.637 | relative viability (LOU-NH91; first compound 0.001 µM): 0.776 | relative viability (LOU-NH91; first compound 0.003162 µM): 0.864 | relative viability (LOU-NH91; first compound 0.01 µM): 0.889 | relative viability (LOU-NH91; first compound 0.03162 µM): 0.898 | relative viability (LOU-NH91; first compound 0.1 µM): 0.837 | relative viability (NCI-H1651; first compound 0.001 µM): 0.572 | relative viability (NCI-H1651; first compound 0.003162 µM): 0.734 | relative viability (NCI-H1651; first compound 0.01 µM): 0.689 | relative viability (NCI-H1651; first compound 0.03162 µM): 0.535 | relative viability (NCI-H1651; first compound 0.1 µM): 0.288 | relative viability (201T; first compound 0.001 µM): 0.851 | relative viability (201T; first compound 0.003162 µM): 0.973 | relative viability (201T; first compound 0.01 µM): 0.944 | relative viability (201T; first compound 0.03162 µM): 1.01 | relative viability (201T; first compound 0.1 µM): 0.814 | relative viability (NCI-H23; first compound 0.001 µM): 0.355 | relative viability (NCI-H23; first compound 0.003162 µM): 0.352 | relative viability (NCI-H23; first compound 0.01 µM): 0.344 | relative viability (NCI-H23; first compound 0.03162 µM): 0.351 | relative viability (NCI-H23; first compound 0.1 µM): 0.273 | relative viability (NCI-H647; first compound 0.001 µM): 0.396 | relative viability (NCI-H647; first compound 0.003162 µM): 0.446 | relative viability (NCI-H647; first compound 0.01 µM): 0.573 | relative viability (NCI-H647; first compound 0.03162 µM): 0.448 | relative viability (NCI-H647; first compound 0.1 µM): 0.528 | relative viability (LXF-289; first compound 0.001 µM): 0.363 | relative viability (LXF-289; first compound 0.003162 µM): 0.447 | relative viability (LXF-289; first compound 0.01 µM): 0.391 | relative viability (LXF-289; first compound 0.03162 µM): 0.551 | relative viability (LXF-289; first compound 0.1 µM): 0.61 | relative viability (NCI-H2405; first compound 0.001 µM): 0.724 | relative viability (NCI-H2405; first compound 0.003162 µM): 0.815 | relative viability (NCI-H2405; first compound 0.01 µM): 0.798 | relative viability (NCI-H2405; first compound 0.03162 µM): 0.65 | relative viability (NCI-H2405; first compound 0.1 µM): 0.509 | relative viability (RERF-LC-KJ; first compound 0.001 µM): 0.732 | relative viability (RERF-LC-KJ; first compound 0.003162 µM): 0.796 | relative viability (RERF-LC-KJ; first compound 0.01 µM): 0.771 | relative viability (RERF-LC-KJ; first compound 0.03162 µM): 0.653 | relative viability (RERF-LC-KJ; first compound 0.1 µM): 0.449 | relative viability (NCI-H2347; first compound 0.001 µM): 0.637 | relative viability (NCI-H2347; first compound 0.003162 µM): 0.694 | relative viability (NCI-H2347; first compound 0.01 µM): 0.718 | relative viability (NCI-H2347; first compound 0.03162 µM): 0.626 | relative viability (NCI-H2347; first compound 0.1 µM): 0.601 | relative viability (HARA; first compound 0.001 µM): 0.383 | relative viability (HARA; first compound 0.003162 µM): 0.681 | relative viability (HARA; first compound 0.01 µM): 0.856 | relative viability (HARA; first compound 0.03162 µM): 0.47 | relative viability (HARA; first compound 0.1 µM): 0.649 | relative viability (A-427; first compound 0.001 µM): 0.586 | relative viability (A-427; first compound 0.003162 µM): 0.565 | relative viability (A-427; first compound 0.01 µM): 0.658 | relative viability (A-427; first compound 0.03162 µM): 0.663 | relative viability (A-427; first compound 0.1 µM): 0.695 | relative viability (UMC-11; first compound 0.001 µM): 0.607 | relative viability (UMC-11; first compound 0.003162 µM): 0.591 | relative viability (UMC-11; first compound 0.01 µM): 0.566 | relative viability (UMC-11; first compound 0.03162 µM): 0.551 | relative viability (UMC-11; first compound 0.1 µM): 0.622 | relative viability (LK-2; first compound 0.001 µM): 0.327 | relative viability (LK-2; first compound 0.003162 µM): 0.338 | relative viability (LK-2; first compound 0.01 µM): 0.252 | relative viability (LK-2; first compound 0.03162 µM): 0.236 | relative viability (LK-2; first compound 0.1 µM): 0.26 | relative viability (HCC-78; first compound 0.001 µM): 0.702 | relative viability (HCC-78; first compound 0.003162 µM): 0.576 | relative viability (HCC-78; first compound 0.01 µM): 0.666 | relative viability (HCC-78; first compound 0.03162 µM): 0.669 | relative viability (HCC-78; first compound 0.1 µM): 0.658 | relative viability (LCLC-97TM1; first compound 0.001 µM): 0.201 | relative viability (LCLC-97TM1; first compound 0.003162 µM): 0.283 | relative viability (LCLC-97TM1; first compound 0.01 µM): 0.279 | relative viability (LCLC-97TM1; first compound 0.03162 µM): 0.321 | relative viability (NCI-H1650; first compound 0.001 µM): 0.462 | relative viability (NCI-H1650; first compound 0.003162 µM): 0.621 | relative viability (NCI-H1650; first compound 0.01 µM): 0.579 | relative viability (NCI-H1650; first compound 0.03162 µM): 0.588 | relative viability (NCI-H1650; first compound 0.1 µM): 0.757 | relative viability (NCI-H522; first compound 0.01 µM): 0.667 | relative viability (NCI-H522; first compound 0.03162 µM): 0.699 | relative viability (NCI-H522; first compound 0.1 µM): 0.539 | relative viability (COR-L23; first compound 0.001 µM): 0.445 | relative viability (COR-L23; first compound 0.003162 µM): 0.493 | relative viability (COR-L23; first compound 0.01 µM): 0.464 | relative viability (COR-L23; first compound 0.03162 µM): 0.482 | relative viability (COR-L23; first compound 0.1 µM): 0.601

Reference: the supplement of paper PMC10307832
